Reference: US11608323B2 (SYNGENTA LIMITED, priority 2013, dated 2023)

Assays:
Format in all cases: in vivo
ABUTH [1] = test: Pre-emergence herbicidal activity, glasshouse pot test; settings: rate 1000 g/Ha, evaluated after 13 days, scale 0-5
In short: (§1)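 Pre-emergence spray, one day post-sowing; vehicle acetone/water (50:50) + 0.5% Tween 20, aqueous dilution. Glasshouse 24/16 °C, 14 h light, 65% RH, watering twice daily. Score at 13 d on 0–5 scale, 5 = total damage.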

ALOMY [2] = test: as above; settings: rate 1000 g/Ha, evaluated after 13 days, scale 0-5
In short: as §1

AMARE [3] = test: as above; settings: rate 1000 g/Ha, evaluated after 13 days, scale 0-5
In short: as §1

ECHCG [4] = test: as above; settings: rate 1000 g/Ha, evaluated after 13 days, scale 0-5
In short: as §1

SETFA [5] = test: as above; settings: rate 1000 g/Ha, evaluated after 13 days, scale 0-5
In short: as §1

ZEAMX [6] = test: as above; settings: rate 1000 g/Ha, evaluated after 13 days, scale 0-5
In short: as §1

ABUTH [7] = test: Post-emergence herbicidal activity, glasshouse pot test; settings: Abutilon theophrasti; application post-emergence; rate 1000 g/Ha; evaluated after 13 days
In short: (§2)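 Damage rating 0 (none) to 5 (total), assessed 13 days after spraying. Plants received the compound in acetone/water 50:50 with 0.5% Tween 20 at 8 days post-sowing, then were kept at 24/16 °C, 14 h photoperiod, 65% RH.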

ALOMY [8] = test: as above; settings: Alopecurus myosuroides; application post-emergence; rate 1000 g/Ha; evaluated after 13 days
In short: as §2

AMARE [9] = test: as above; settings: Amaranthus retroflexus; application post-emergence; rate 1000 g/Ha; evaluated after 13 days
In short: as §2

ECHCG [10] = test: as above; settings: Echinochloa crus-galli; application post-emergence; rate 1000 g/Ha; evaluated after 13 days
In short: as §2

SETFA [11] = test: as above; settings: Setaria faberi; application post-emergence; rate 1000 g/Ha; evaluated after 13 days
In short: as §2

ZEAMX [12] = test: as above; settings: Zea mays; application post-emergence; rate 1000 g/Ha; evaluated after 13 days
In short: as §2

| Compound | ABUTH damage score, application pre-emergence (ABUTH [1]) | ALOMY damage score, application pre-emergence (ALOMY [2]) | AMARE damage score, application pre-emergence (AMARE [3]) | ECHCG damage score, application pre-emergence (ECHCG [4]) | SETFA damage score, application pre-emergence (SETFA [5]) | ZEAMX damage score, application pre-emergence (ZEAMX [6]) | Post-emergence herbicidal activity ABUTH (damage score 0-5) (ABUTH [7]) | Post-emergence herbicidal activity ALOMY (damage score 0-5) (ALOMY [8]) | Post-emergence herbicidal activity AMARE (damage score 0-5) (AMARE [9]) | Post-emergence herbicidal activity ECHCG (damage score 0-5) (ECHCG [10]) | Post-emergence herbicidal activity SETFA (damage score 0-5) (SETFA [11]) | Post-emergence herbicidal activity ZEAMX (damage score 0-5) (ZEAMX [12]) |
| --- | --- | --- | --- | --- | --- | --- | --- | --- | --- | --- | --- | --- |
| CC1C(O)N(c2cc(C(F)(F)F)c(NC(=O)C(C)(C)C)cn2)C(=O)N1C (single isomer, unassigned) [Compound A57] | 5 | 4 | 5 | 3 | 3 | 1 | 5 | 5 | 5 | 5 | 5 | 4 |
| CON1C(=O)N(c2cc(C(F)(F)F)c(C)cn2)C(O)C1C (single isomer, unassigned) [Compound A58] | 5 | 4 | 5 | 3 | 3 | 4 | 5 | 4 | 5 | 5 | 5 | 4 |
| CCC1C(O)N(c2cc(C(F)(F)F)ccn2)C(=O)N1C (stereo not drawn) [Compound A1] | 5 | 4 | 5 | 5 | 5 | 3 | 5 | 5 | 5 | 5 | 5 | 3 |
| CCCOC1C(O)N(c2cc(C(F)(F)F)ccn2)C(=O)N1C (stereo not drawn) [Compound A2] | 5 | 2 | 5 | 4 | 3 | 1 | 5 | 4 | 5 | 5 | 5 | 2 |
| COC1C(O)N(c2cc(C(F)(F)F)ccn2)C(=O)N1C (stereo not drawn) [Compound A5] | 5 | 3 | 5 | 4 | 4 | 2 | 5 | 4 | 5 | 4 | 4 | 2 |
| CN1C(=O)N(c2cc(C(F)(F)F)ccn2)C(O)C1O (stereo not drawn) [Compound A7, 4,5-dihydroxy-1-methyl-3-[4-(trifluoromethyl)-2-pyridyl]imidazolidin-2-one] | 5 | 4 | 5 | 3 | 4 | 1 | 5 | 4 | 5 | 5 | 5 | 4 |
| CON1C(=O)N(c2cc(C(F)(F)F)ccn2)C(O)C1C (stereo not drawn) [Compound A8, 4-hydroxy-1-methoxy-5-methyl-3-[4-(trifluoromethyl)-2-pyridyl]imidazolidin-2-one] | 5 | 4 | 5 | 4 | 5 | 3 | 5 | 5 | 5 | 5 | 5 | 4 |
| CC1C(O)N(c2cc(C(F)(F)F)c(-c3ccccn3)cn2)C(=O)N1C (stereo not drawn) [Compound A9] | 5 | 4 | 5 | 5 | 5 | 3 | 5 | 5 | 5 | 5 | 5 | 4 |
| CCOC1C(O)N(c2cc(C(F)(F)F)c(OC)cn2)C(=O)N1C (stereo not drawn) [Compound A10] | 5 | 4 | 5 | 5 | 5 | 3 | 5 | 5 | 5 | 5 | 5 | 4 |
| CC1C(O)N(c2cc(C(F)(F)F)c(-c3cncnc3)cn2)C(=O)N1C (stereo not drawn) [Compound A11] | 5 | 4 | 5 | 4 | 5 | 3 | 5 | 4 | 5 | 5 | 5 | 4 |
| COc1cnc(N2C(=O)N(C)C(C)C2O)cc1C(F)(F)F (stereo not drawn) [Compound A12, 5-hydroxy-1-[5-methoxy-4-(trifluoromethyl)-2-pyridyl]-3,4-dimethyl-imidazolidin-2-one] | 5 | 4 | 5 | 5 | 5 | 3 | 5 | 5 | 5 | 5 | 5 | 5 |
